Several values for one entry are separate records, joined by “and”; a condition that tells them apart may be missing. Equal entries are not always repeated. Toxic doses and inconclusive results are not listed. No stated cut-off is given here; in the data, active means T/C of 150% or more; inactive means T/C below 125%.
Test system: L1210 leukemia ip in BDF1 mice, survival T/C
Assay: NCI In Vivo Anticancer Drug Screen. Data for tumor model L1210 Leukemia (intraperitoneal) in B6D2F1 (BDF1) mice
Details: endpoint: mean survival time, higher = longer survival
Outline: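 Value reflects the ratio of survival in compound-treated mice to survival in vehicle-treated controls, with both groups carrying the same transplanted tumor.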

[1] = dose: 100.0 mg/kg/injection, schedule: Q01DX001 (ip), vehicle: saline
[2] = dose: 200.0 mg/kg/injection, schedule: Q01DX001 (ip), vehicle: saline
[3] = dose: 400.0 mg/kg/injection, schedule: Q01DX001 (ip), vehicle: saline
[4] = dose: 6.25 mg/kg/injection, schedule: Q01DX009 (ip), vehicle: Klucel (hydroxypropylcellulose) (HPC)
[5] = dose: 25.0 mg/kg/injection, schedule: Q04DX003 (ip), vehicle: Klucel (hydroxypropylcellulose) (HPC)
[6] = dose: 100.0 mg/kg/injection, schedule: Q04DX003 (ip), vehicle: saline
[7] = dose: 200.0 mg/kg/injection, schedule: Q04DX003 (ip), vehicle: saline
[8] = dose: 400.0 mg/kg/injection, schedule: Q04DX003 (ip), vehicle: saline
[9] = dose: 12.5 mg/kg/injection, schedule: Q01DX009 (ip), vehicle: Klucel (hydroxypropylcellulose) (HPC)
[10] = dose: 25.0 mg/kg/injection, schedule: Q01DX009 (ip), vehicle: Klucel (hydroxypropylcellulose) (HPC)
[11] = dose: 50.0 mg/kg/injection, schedule: Q01DX009 (ip), vehicle: saline with Tween-80
[12] = dose: 100.0 mg/kg/injection, schedule: Q01DX009 (ip), vehicle: saline with Tween-80
[13] = dose: 100.0 mg/kg/injection, schedule: Q01DX001 (ip), vehicle: saline with Tween-80
[14] = dose: 400.0 mg/kg/injection, schedule: Q01DX001 (ip), vehicle: saline with Tween-80

Measured: T/C

CCC(C)(CC)OC(=O)c1ccc([N+](=O)[O-])cc1
inactive: dose: 100.0 mg/kg/injection, schedule: Q04DX002 (ip), vehicle: Klucel (hydroxypropylcellulose) (HPC) 113 % of control | dose: 200.0 mg/kg/injection, schedule: Q04DX002 (ip), vehicle: Klucel (hydroxypropylcellulose) (HPC) 106 % of control | dose: 400.0 mg/kg/injection, schedule: Q04DX002 (ip), vehicle: Klucel (hydroxypropylcellulose) (HPC) 97 % of control

CCCCNC(=O)n1ncc2cc(Cl)ccc21
inactive: [1] 103 % of control | [2] 100 % of control | [3] 94 % of control

CCC[CH2][Pb]([CH2]CCC)([CH2]CCC)[O]C(=O)CCl
inactive: dose: 1.56 mg/kg/injection, schedule: Q01DX009 (ip), vehicle: Klucel (hydroxypropylcellulose) (HPC) 98 % of control | dose: 3.13 mg/kg/injection, schedule: Q01DX009 (ip), vehicle: Klucel (hydroxypropylcellulose) (HPC) 104 % of control | [4] 94 % of control and 98 % of control | dose: 12.5 mg/kg/injection, schedule: Q04DX003 (ip), vehicle: Klucel (hydroxypropylcellulose) (HPC) 101 % of control | [5] 100 % of control

c1ccc(-c2nnnn2C23CC4CC(CC(C4)C2)C3)cc1
inactive: [6] 98 % of control | [7] 100 % of control | [8] 98 % of control

NC(=O)N1CCN(CCCN2c3ccccc3Sc3cc(Cl)ccc32)CC1
inactive: [4] 95 % of control | [9] 110 % of control | [10] 115 % of control | [5] 113 % of control | dose: 50.0 mg/kg/injection, schedule: Q04DX003 (ip), vehicle: Klucel (hydroxypropylcellulose) (HPC) 109 % of control | dose: 100.0 mg/kg/injection, schedule: Q04DX003 (ip), vehicle: Klucel (hydroxypropylcellulose) (HPC) 115 % of control

COC(=O)/C(Br)=C\c1ccc(-c2ccccc2)cc1
inactive: [11] 93 % of control | [12] 93 % of control | dose: 200.0 mg/kg/injection, schedule: Q01DX009 (ip), vehicle: saline with Tween-80 93 % of control

CCOC(=O)C(CC)(CCC(C)C)C(=O)OCC
inactive: dose: 25.0 mg/kg/injection, schedule: Q01DX009 (ip), vehicle: saline with Tween-80 97 % of control | [11] 92 % of control | [12] 95 % of control | [6] 95 % of control | [7] 95 % of control | [8] 95 % of control

CCCCCc1c2c(c(CCCCC)c3c1-c1cccc4cccc-3c14)-c1ccc(C)cc1C2
inactive: [13] 92 % of control | [14] 87 % of control

COP(=O)(CCBr)OC
inactive: [1] 103 % of control | dose: 100.0 mg/kg/injection, schedule: Q01DX009 (ip), vehicle: saline 101 % of control | [6] 104 % of control | [2] 102 % of control | dose: 200.0 mg/kg/injection, schedule: Q01DX009 (ip), vehicle: saline 103 % of control | [7] 104 % of control | [3] 108 % of control | dose: 400.0 mg/kg/injection, schedule: Q01DX009 (ip), vehicle: saline 98 % of control | [8] 106 % of control

CCCCCCCCCOc1ccc(C=Nc2ccc(CC)cc2)cc1
inactive: [9] 92 % of control | [10] 90 % of control | dose: 50.0 mg/kg/injection, schedule: Q01DX009 (ip), vehicle: Klucel (hydroxypropylcellulose) (HPC) 92 % of control

CCOC(=O)c1cnc(SC)nc1Nc1cc(Cl)cc(Cl)c1
inactive: dose: 100.0 mg/kg/injection, schedule: Q04DX003 (ip), vehicle: saline with Tween-80 89 % of control | dose: 200.0 mg/kg/injection, schedule: Q04DX003 (ip), vehicle: saline with Tween-80 87 % of control | dose: 400.0 mg/kg/injection, schedule: Q04DX003 (ip), vehicle: saline with Tween-80 91 % of control

CS(=O)(=O)OCCN(CCOS(C)(=O)=O)c1cccc(C(F)(F)F)c1
inactive: dose: 5.0 mg/kg/injection, schedule: Q01DX001 (ip), vehicle: saline 96 % of control | dose: 10.0 mg/kg/injection, schedule: Q01DX001 (ip), vehicle: saline 100 % of control | dose: 11.0 mg/kg/injection, schedule: Q01DX015 (ip), vehicle: saline 101 % of control | dose: 17.0 mg/kg/injection, schedule: Q01DX015 (ip), vehicle: saline 110 % of control | dose: 20.0 mg/kg/injection, schedule: Q01DX001 (ip), vehicle: saline 102 % of control | dose: 25.0 mg/kg/injection, schedule: Q01DX015 (ip), vehicle: saline 116 % of control | dose: 50.0 mg/kg/injection, schedule: Q01DX001 (ip), vehicle: saline 124 % of control | [1] 124 % of control | [2] 120 % of control | [3] 86 % of control

O=C1CCc2c1cccc2[N+](=O)[O-]
inactive: dose: 100.0 mg/kg/injection, schedule: Q04DX002 (ip), vehicle: saline with Tween-80 102 % of control | dose: 200.0 mg/kg/injection, schedule: Q04DX002 (ip), vehicle: saline with Tween-80 102 % of control | dose: 400.0 mg/kg/injection, schedule: Q04DX002 (ip), vehicle: saline with Tween-80 102 % of control

O=C(/C=C(\CBr)c1ccc(-c2ccccc2)cc1)c1ccccc1
inactive: dose: 50.0 mg/kg/injection, schedule: Q01DX001 (ip), vehicle: saline with Tween-80 92 % of control | [13] 87 % of control and 89 % of control | dose: 200.0 mg/kg/injection, schedule: Q01DX001 (ip), vehicle: saline with Tween-80 91 % of control | [14] 94 % of control

CCCC(OP(=S)(OCC(Cl)CC)OCC(Cl)CC)P(=O)(OCC(Cl)CC)OCC(Cl)CC (stereo not given)
inactive: dose: 100.0 mg/kg/injection, schedule: Q04DX002 (ip), vehicle: saline 106 % of control | dose: 200.0 mg/kg/injection, schedule: Q04DX002 (ip), vehicle: saline 106 % of control | dose: 400.0 mg/kg/injection, schedule: Q04DX002 (ip), vehicle: saline 106 % of control

Cc1ccc(/C=C2/C=C(c3ccccc3)OC2=O)cc1
inactive: dose: 50.0 mg/kg/injection, schedule: Q01DX009 (ip), vehicle: alcohol 87 % of control | dose: 100.0 mg/kg/injection, schedule: Q01DX009 (ip), vehicle: alcohol 87 % of control | dose: 100.0 mg/kg/injection, schedule: Q04DX003 (ip), vehicle: alcohol 92 % of control | dose: 200.0 mg/kg/injection, schedule: Q01DX009 (ip), vehicle: alcohol 88 % of control | dose: 200.0 mg/kg/injection, schedule: Q04DX003 (ip), vehicle: alcohol 95 % of control

Cc1cc(C(C)(C)CC(C)(C)C)cc(O)c1O
inactive: dose: 100.0 mg/kg/injection, schedule: Q01DX009 (ip), vehicle: other 94 % of control | dose: 100.0 mg/kg/injection, schedule: Q04DX003 (ip), vehicle: other 96 % of control | dose: 200.0 mg/kg/injection, schedule: Q01DX009 (ip), vehicle: other 94 % of control | dose: 200.0 mg/kg/injection, schedule: Q04DX003 (ip), vehicle: other 93 % of control | dose: 400.0 mg/kg/injection, schedule: Q01DX009 (ip), vehicle: other 94 % of control | dose: 400.0 mg/kg/injection, schedule: Q04DX003 (ip), vehicle: other 91 % of control

S=C(Nc1ccc(Cl)c(Cl)c1)SCc1ccccc1
inactive: dose: 75.0 mg/kg/injection, schedule: Q04DX003 (ip), vehicle: saline 101 % of control | dose: 150.0 mg/kg/injection, schedule: Q04DX003 (ip), vehicle: saline 104 % of control | dose: 300.0 mg/kg/injection, schedule: Q04DX003 (ip), vehicle: saline 101 % of control
